We go through 4 molecules from US12486298B2, “Fucosyltransferase specific inhibition using fucose mimetics” (THE FLORIDA INTERNATIONAL UNIVERSITY BOARD OF TRUSTEES, priority 2020, dated 2025).

“Also recorded” adds a separate entry of the source.

Holding throughout (format): cell-based, human
One assay has as its system THP-1 cells. The assay is described as follows: Inhibition of native cell surface fucosylation of THP-1 cells (flow cytometry). The settings on record: for CD15 (Le^X) expression / CD15s (sLe^X) expression: 48 hours incubation, 24- and 48-hour timepoints. Here is the method: (§1) For inhibition of cell surface fucosylation, a Symphony A3 (BD Biosciences) was utilized for flow cytometry and the data acquired was analyzed using FlowJo Software (Treestar). Cells were stained using antibodies specific to CD15s (CSLEX1) from BD biosciences and CD15 (LeX) from Biolegend.
The THP-1 cell line (a human monocytic leukemia cell line) was incubated for 48 hours with either Compound 31, Compound 6A, Compound 26, or with 2F-Ac-Fucose (positive control) in RPMI 1640 medium containing 10% FBS. Cells were evaluated by flow cytometry at 24- and 48-hour timepoints for expression of CD15 (Le^X), and CD15s (sLe^X) (FIG. 11).
(§2) In each case, expression of the relevant marker (CD15 or CD15s) was quantified as the median channel fluorescence (MFI), which was then divided by the MFI of Control cells incubated in media containing DMSO at levels equivalent to that for each inhibitor tested (i.e., Y-axis are values of (MFI of inhibitor-treated cells/MFI of DMSO-incubated Control cells)×100%).
In general terms: In flow cytometry, cells or beads pass a laser one at a time.

Another assay has as its system HL60 cells. The assay is described as follows: Inhibition of native cell surface fucosylation of HL60 cells (flow cytometry). The settings on record: 72 hours incubation, 24-, 48-, 72-hour timepoints, 6A and 26 at 64 or 256 uM. Here is the method: as §1
The HL60 cell line (a human promyelocytic leukemia cell line) was incubated for 72 hours in RPMI 1640 medium containing 10% FBS with either 2F-Ac-Fucose (positive control), Compound 6A (64 or 256 uM), or Compound 26 (64 or 256 uM). Cells were evaluated by flow cytometry at 24-, 48-, and 72-hour timepoints of incubation for expression of CD15s (sLe^X) and CD15 (Le^X) (FIG. 10B).
as §2

The test system of another assay is KG1a cells. The assay is described as follows: Inhibition of native cell surface fucosylation of KG1a cells (flow cytometry). The settings on record: 72 hours incubation, 24-, 48-, 72-hour timepoints, 64 or 256 uM. Here is the method: as §1
Cells were evaluated at 24-, 48-, and 72-hour timepoints of incubation to assess for effects on expression of CD15s (sLe^X) by flow cytometry (FIG. 10A).
as §2

For `COC(=O)Cc1ccc2c(c1)SC1C(O2)OC(C)C(OC(C)=O)C1OC(C)=O` (stereo not drawn) [Compound 31], in the assay with THP-1 cells, the “time by which CD15s inhibition is evident” value was at most 48 h, the “CD15 (Le^X) expression” value was “does not inhibit CD15 expression” and the “CD15s (sLe^X) expression” value is on record as “specificity for inhibiting the creation of CD15s; also recorded: inhibits the creation of CD15s”. Moreover, the “concentration inhibiting creation of CD15s” value in the assay on THP-1 cells (within 48 hours) was “below 50 uM”.
`CC(=O)OC1O[C@@H](C)[C@@H](OC(C)=O)[C@@H](OC(C)=O)[C@@H]1F` (stereo partly drawn) [2F-Ac-Fucose, reference compound]: in the assay with THP-1 cells, the “concentration range inhibiting creation of CD15s” value is given as “micromolar range”, the “concentration range inhibiting synthesis of CD15” value was “micromolar range”, the “CD15 (Le^X) expression” value is listed as “inhibits synthesis of both markers” and the “CD15s (sLe^X) expression” value is reported as “inhibits synthesis of both markers”. In addition, the “CD15s (sLe^X) synthesis” value in the assay on THP-1 cells (3 μM) is reported as “not at 3 μM concentration”. Besides, in the assay with THP-1 cells (50 μM), the “CD15 (Le^X) synthesis” value was “inhibition of synthesis” and the “CD15s (sLe^X) synthesis” value is reported as “inhibition of synthesis”. Further, in the assay on HL60 cells, the “CD15 (Le^X) expression” value is “loss of both CD15s and CD15 expression”; the “CD15s (sLe^X) expression” value is “loss of both CD15s and CD15 expression”.
As to `CCOC(=O)C1=C(C23CCC4CC(CC(C4)C2)C3)OC2OC(C)C(OC(C)=O)C(OC(C)=O)C2S1` (stereo not drawn) [Compound 26], the “CD15s (sLe^X) expression” value with KG1a cells was “inhibited CD15s expression similar to that of 2F-Ac-Fucose”. Besides, in the assay on THP-1 cells, the “concentration range inhibiting creation of CD15s” value is “nanomolar range; also recorded: nM range”, the “time by which CD15s inhibition is evident” value is at most 24 h, the “CD15 (Le^X) expression” value is reported as “does not inhibit CD15 expression” and the “CD15s (sLe^X) expression” value was “inhibit creation of CD15s”. In addition, in the assay with HL60 cells, the “CD15 (Le^X) expression” value is “only inhibited the formation of CD15s” and the “CD15s (sLe^X) expression” value is listed as “inhibited the formation of CD15s”.
Consider `CC(=O)OC1C(C)OC2Oc3ccc(CC(=O)NCCOCCOCCN)cc3SC2C1OC(C)=O.O=C(O)C(F)(F)F` (stereo not drawn) [Compound 6A], for which the “CD15s (sLe^X) expression” value in the assay on KG1a cells is “inhibited CD15s expression similar to that of 2F-Ac-Fucose”. In the assay on THP-1 cells, the “concentration range inhibiting creation of CD15s” value is listed as “nanomolar range; also recorded: nM range”, the “time by which CD15s inhibition is evident” value is at most 24 h, the “CD15 (Le^X) expression” value is “does not inhibit CD15 expression” and the “CD15s (sLe^X) expression” value is given as “inhibit creation of CD15s”. In addition, in the assay with HL60 cells, the “CD15 (Le^X) expression” value is reported as “only inhibited the formation of CD15s” and the “CD15s (sLe^X) expression” value was “inhibited the formation of CD15s”.
